Literature values, collected in patent US20230226011A1, “Novel Pharmaceutical Composition Comprising Combination of Olopatadine and Nepafenac” (Zenvision Pharma LLP, priority 2020, published 2023).
Structures can show the parent of a compound that is named as a salt.

Conditions: for solubility in water: solvent water

solubility in water	solubility in chloroform (solvent chloroform)	solubility in methanol (solvent methanol)	SMILES
practically insoluble			NC(=O)Cc1cccc(C(=O)c2ccccc2)c1N [Nepafenac, 2-amino-3-benzoylbenzeneacetamide]
sparingly soluble	insoluble	sparingly soluble	CN(C)CC/C=C1/c2ccccc2COc2ccc(CC(=O)O)cc21 [Olopatadine hydrochloride, 11-[(Z)-3(Dimethylamino)propylidene]-6-11-dihydrodibenz[b,e] oxepin-2-acetic acid, hydrochloride]
